Results from the supplement of paper PMC11061612.

Columns and labels:
Assay in all cases: combination Emax (second highest fraction inhibited in the dose matrix, 72 h); higher = more inhibition; extreme values may be limits of the assay
[1] = system: SW684 (Other Solid Carcinomas)
Method in brief: (§1)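 Cell lines in DMEM/F12 or RPMI with 10% FBS were plated in 1536-well plates, held 24 hours at 37°C, 5% CO2, then given two-drug dose matrices for 72 hours (DMSO typically 0.2%). Viability was read by CellTiter-Glo 2.0 luminescence and scaled as inhibition from 0 (vehicle wells) to 1 (blank wells). Combination Emax is the second-highest inhibition in the matrix; Bliss excess is observed combination effect minus expected EA + EB − EA·EB, EA and EB being single-agent effects.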

[2] = system: Caov-3 (Ovarian Carcinoma)
Method in brief: as §1

[3] = system: RPMI-8866 (Chronic Myelogenous Leukemia)
Method in brief: as §1

[4] = system: SJRH30 (Rhabdomyosarcoma)
Method in brief: as §1

[5] = system: RT4 (Bladder Carcinoma)
Method in brief: as §1

[6] = system: LAMA-84 (Chronic Myelogenous Leukemia)
Method in brief: as §1

[7] = system: HSC-3 (Oral Cavity Carcinoma)
Method in brief: as §1

[8] = system: SK-MM-2 (Plasma Cell Myeloma)
Method in brief: as §1

[9] = system: LOUCY (T-Lymphoblastic Leukemia)
Method in brief: as §1

[10] = system: JHH-1 (Hepatocellular Carcinoma)
Method in brief: as §1

[11] = system: FLO-1 (Esophageal Adenocarcinoma)
Method in brief: as §1

[12] = system: OV-90 (Ovarian Carcinoma)
Method in brief: as §1

[13] = system: AsPC-1 (Pancreatic Carcinoma)
Method in brief: as §1

[14] = system: HTC-C3 (Thyroid Gland Carcinoma)
Method in brief: as §1

[15] = system: NCI-H1755 (Lung Adenocarcinoma)
Method in brief: as §1

[16] = system: ES-2 (Ovarian Carcinoma)
Method in brief: as §1

[17] = system: 786-0 (Kidney Carcinoma)
Method in brief: as §1

[18] = system: Calu-6 (Non-Small Cell Lung Carcinoma)
Method in brief: as §1

[19] = system: OCI-AML5 (Acute Myeloid Leukemia)
Method in brief: as §1

[20] = system: NCI-H810 (Non-Small Cell Lung Carcinoma)
Method in brief: as §1

| SMILES | combination Emax [1] | combination Emax [2] | combination Emax [3] | combination Emax [4] | combination Emax [5] | combination Emax [6] | combination Emax [7] | combination Emax [8] | combination Emax [9] | combination Emax [10] | combination Emax [11] | combination Emax [12] | combination Emax [13] | combination Emax [14] | combination Emax [15] | combination Emax [16] | combination Emax [17] | combination Emax [18] | combination Emax [19] | combination Emax [20] |
| --- | --- | --- | --- | --- | --- | --- | --- | --- | --- | --- | --- | --- | --- | --- | --- | --- | --- | --- | --- | --- |
| COc1cccc(OCCCN)c1-c1cc(Nc2cnc(C#N)cn2)n[nH]1 [Prexasertib] + CCc1c2c(nc3ccc(O)cc13)-c1cc3c(c(=O)n1C2)COC(=O)[C@]3(O)CC [SN-38] (first compound max 1 µM, 7x7, partner max 0.3 µM) | 0.642 | 0.984 | 1 | 0.984 | 0.894 | 1 | 0.937 | 0.875 | 1 | 0.75 | 0.918 | 0.573 | 0.41 | 0.966 | 0.952 | 0.988 | 0.938 | 0.862 | 1 | 0.98 |
| CN(C)CCCOc1ccc(-c2ccc3ncc4c(c3c2)n(C2CCOCC2)c(=O)n4C)cn1 [AZD0156] + CCN(CCO)CCCOc1ccc2c(Nc3cc(CC(=O)Nc4cccc(F)c4)[nH]n3)ncnc2c1 [AZD2811] (first compound max 1 µM, 7x7, partner max 1 µM) | 0.154 | 0.809 | 0.61 | 0.125 | 0.349 | 0.296 | 0.308 | 0.248 | 0.929 | 0.108 | 0.267 | 0.143 | 0.0981 | 0.0862 | 0.475 | 0.167 | 0.118 | 0.328 | 0.963 | 0.542 |
| C[C@@H]1COCCN1c1cc(C2([S@](C)(=N)=O)CC2)nc(-c2ccnc3[nH]ccc23)n1 [AZD6738] + O=C(c1cc(Cc2n[nH]c(=O)c3ccccc23)ccc1F)N1CCN(C(=O)C2CC2)CC1 [Olaparib] (first compound max 10 µM, 7x7, partner max 10 µM) | 0.422 | 0.699 | 0.982 | 0.619 | 0.443 | 0.961 | 0.404 | 0.572 | 0.974 | 0.458 | 0.75 | 0.537 | 0.308 | 0.83 | 0.793 | 0.662 | 0.679 | 0.684 | 0.907 | 0.766 |
| CN(CCO)CC[C@H](CSc1ccccc1)Nc1ccc(S(=O)(=O)NC(=O)c2ccc(N3CCC([C@@H](O)c4ccccc4-c4ccc(Cl)cc4)CC3)cc2)cc1S(=O)(=O)C(F)(F)F [AZD4320] + CN(C)CCCOc1ccc(-c2ccc3ncc4c(c3c2)n(C2CCOCC2)c(=O)n4C)cn1 [AZD0156] (first compound max 1 µM, 7x7, partner max 1 µM) | 0.19 | 0.541 | 0.552 | 0.147 | 0.266 | 0.667 | 0.145 | 1 | 1 | 0.444 | 0.386 | 0.5 | 0.602 | 0.37 | 0.229 | 0.15 | 0.0619 | 0.395 | 1 | 0.453 |
| CN(CCO)CC[C@H](CSc1ccccc1)Nc1ccc(S(=O)(=O)NC(=O)c2ccc(N3CCC([C@@H](O)c4ccccc4-c4ccc(Cl)cc4)CC3)cc2)cc1S(=O)(=O)C(F)(F)F [AZD4320] + C[C@@H]1COCCN1C2=NC(=NC(=C2)C3(CC3)[S@](=N)(=O)C)C4=C5C=CNC5=NC=C4 [AZD6738] (first compound max 1 µM, 7x7, partner max 10 µM) | 0.537 | 0.958 | 1 | 0.927 | 0.791 | 0.989 | 0.691 | 1 | 1 | 0.838 | 0.742 | 0.917 | 0.662 | 0.881 | 0.831 | 0.94 | 0.815 | 0.891 | 1 | 0.86 |
| Cc1cc2ncnn2cc1Nc1ncc2c(n1)n(C1CCOCC1)c(=O)n2C [AZD7648] + O=C(c1cc(Cc2n[nH]c(=O)c3ccccc23)ccc1F)N1CCN(C(=O)C2CC2)CC1 [Olaparib] (first compound max 10 µM, 7x7, partner max 10 µM) | 0.154 | 0.28 | 0.594 | 0.0648 | 0.28 | 0.17 | 0.15 | 0.156 | 0.444 | 0.105 | 0.208 | 0.238 | 0.0586 | 0.214 | 0.263 | 0.283 | 0.101 | 0.355 | 0.25 | 0.193 |
